The text below walks through data of patent US6191152A, “2-(1,2,4-triazole-1-yl)-1,3,4-thiadiazole derivatives having an effect on the C.N.S. and the heart” (EGIS Gyogyszergyar Rt., priority 1997, dated 2001).

In experiment [1] the target is T1, 5-HT2A receptor (Rattus norvegicus, UniProt P14842).
T1 construct: rat brain frontal cortex membrane preparation; from tissue; host or cells: rat brain frontal cortex membranes
Nature of the experiment: 5-HT2A receptor binding, rat brain frontal cortex membrane, tritiated ketanserine. Particulars: read-out: Inhibition of receptor binding of the radioactive ligand (Ki), 5-HT2A. The procedure:
(§1) 4) 5-HT2A and 5-HT2C Receptor Binding Studies
(§2) 5-HT2A and 5-HT2C receptor binding was measured according to the methods described by Leysen et al. /Mol. Pharmacol., 21, 301 (1981)/and Pazos et al. /Eur. J. Pharmacol., 106, 539 (1985)/, respectively. 5-HT2A receptor binding was measured in rat brain frontal cortex membrane preparation using tritiated ketanserine /3-/2-(4-fluorobenzoyl)-1-piperidinyl/ethyl-2,4-(1H,3H)-quinazolinedione/ (60-90 Ci/mmole) as ligand. 5-HT2C receptor binding was measured in pig brain choroid plexus membrane-preparation using tritiated mesulergine /N'-/(8)-1,6-dimethylergoline-8-yl/-N,N-dimethylsulfamide (70-85 Ci/mmole) as the ligand. Non-specific binding to 5-HT2A and 5-HT2C receptors were determined in the presence of 10 micromoles of cyproheptadine /4-(5H-dibenzo/a,d/cycloheptene-5-ylidene)-1-methylpiperidine/and 1 micromole of mianserine /1,2,3,4,10,14b-hexahydro-2-methyldibenzo/c,f/pyrazino/1,2-a/azepine/, respectively. The final incubation volumes were 250 and 1000 microlitres. Samples were incubated for 15 and 30 minutes at 37° C. Incubation was stopped by adding 9 ml of ice-cold 50 mr- tris(hydroxymethyl)aminomethane hydrochloride (pH=7.7) to the reaction mixture. The samples were rapidly filtered through whatman GF/B glass fiber filters using reduced pressure. […] Radioactivity of the filters was determined by a scintillation spectrometer.

Experiment [2] addresses T2, 5-HT2C receptor (Sus scrofa, UniProt K7GSR7).
T2 construct: pig brain choroid plexus membrane-preparation; from tissue; host or cells: pig brain choroid plexus membranes
T2 sequence (K7GSR7 1-457): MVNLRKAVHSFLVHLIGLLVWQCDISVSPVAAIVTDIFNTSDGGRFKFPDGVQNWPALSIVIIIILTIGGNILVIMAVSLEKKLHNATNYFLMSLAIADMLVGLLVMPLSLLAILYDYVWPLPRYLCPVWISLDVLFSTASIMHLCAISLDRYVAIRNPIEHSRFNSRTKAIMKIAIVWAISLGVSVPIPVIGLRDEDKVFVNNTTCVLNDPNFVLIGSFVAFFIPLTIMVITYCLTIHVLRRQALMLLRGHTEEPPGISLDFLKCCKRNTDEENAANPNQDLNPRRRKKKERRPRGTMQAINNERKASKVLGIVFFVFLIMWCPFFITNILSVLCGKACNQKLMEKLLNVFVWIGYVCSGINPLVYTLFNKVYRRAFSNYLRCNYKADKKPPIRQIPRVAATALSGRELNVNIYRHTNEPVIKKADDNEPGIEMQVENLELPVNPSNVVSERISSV
Nature of the experiment: 5-HT2C receptor binding, pig brain choroid plexus membrane, tritiated mesulergine. Particulars: read-out: Inhibition of receptor binding of the radioactive ligand (Ki), 5-HT2C. The procedure: as §1, §2

Experiment [3] relates to isolated rat thoracic aorta. Nature of the experiment: Vascular relaxing effect in isolated rat thoracic aorta contracted with 40 mM potassium chloride (diltiazem). Also noted: species or system rat (male SPRD). To be noted: 40 mM KCl contracted strips, 37° C., read-out: IC50 (vascular relaxation in isolated rat thoracic aorta). The procedure: Experiments were performed in thoracic aortas obtained from male SPRD rats weighing 250 to 300 g. Thoracic aortas excised from rats killed by decapitation and ensanguination were cleaned of fat and connective tissue, then were immediately placed in carbogenized TYRODE solution. The composition of the normal TYRODE solution was the following (in mM): NaCl 114.7, KCl 3.7, CaCl2 3.6, MgCl2 0.49, NaHCO3 19.9, NaH2 PO4 0.32, glucose 5.1.
Two mm wide and 20 to 25 mm long strips were cut from the aortas along a helical line at 45° angle. Aortic strips were mounted vertically between two cotton threads in 10 ml organ chambers, the lower threads were attached to the organ chambers and the upper threads were connected to isometric force transducers. The strips were incubated under 1 g resting tension at 37° C. for 120 minutes, then resting vascular tone was recorded. […]
When stable vascular tone developed, increasing doses of the test substance were added to the organ bath. The effects of each test substance were measured at least in 3 tissue preparations obtained from different animals. Decreases in vascular tension caused by the test substances were expressed as percentage changes and IC50 for each tissue preparation was determined by sigmoid (in few casses linear) curve fitting. […]

The subject of experiment [4] is human beings. Particulars: Ceulemans et al.; cited from earlier work.

T1 sequence (P14842 whole entry): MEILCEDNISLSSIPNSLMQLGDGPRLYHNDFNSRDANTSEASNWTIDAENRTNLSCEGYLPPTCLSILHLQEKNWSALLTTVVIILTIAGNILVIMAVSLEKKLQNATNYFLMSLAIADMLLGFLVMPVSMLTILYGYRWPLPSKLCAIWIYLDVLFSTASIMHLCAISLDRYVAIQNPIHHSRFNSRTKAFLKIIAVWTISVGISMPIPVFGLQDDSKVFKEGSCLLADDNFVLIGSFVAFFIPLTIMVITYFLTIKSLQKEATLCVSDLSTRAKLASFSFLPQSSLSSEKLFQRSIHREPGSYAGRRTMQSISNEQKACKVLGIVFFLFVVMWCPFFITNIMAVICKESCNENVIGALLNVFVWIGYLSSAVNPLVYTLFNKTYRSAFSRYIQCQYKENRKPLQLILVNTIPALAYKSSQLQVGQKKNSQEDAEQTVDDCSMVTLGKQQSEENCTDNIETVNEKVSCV

For orientation: Ki means a dissociation constant, usually derived from enzyme kinetics or from competition with a known ligand. Consider `CN(C)CCCOc1ccccc1-c1nnc(-n2nc(N3CCCC3)nc2N)s1` [Example 44, 2-(5-Amino-3-pyrrolidino-1H-1,2,4-triazole-1-yl)-5-/ 2-(3-dimethylaminopropoxy)phenyl/-1,3,4-thiadiazole], for which the values for the Ki in experiment [1] and in experiment [2] were above 100 nM and 50 nM, respectively.
On to `COc1ccc(CCN(C)CCCOc2ccccc2-c2nnc(-n3nc(SC)nc3N)s2)cc1OC` [Example 98, 2-(5-Amino-3-methylthio-1H-1,2,4-triazole-1-yl)-5-{2-[3-methyl-3-/ 2-(3,4-dimethoxyphenylethyl)amino/propoxy]phenyl}-1,3,4-thiadiazole], for which the Ki was above 1000 nM in experiment [1] and 24 nM in experiment [2].
The term IC50 denotes the concentration at which inhibition is half-maximal. As to `COc1ccc([C@@H]2Sc3ccccc3N(CCN(C)C)C(=O)[C@@H]2OC(C)=O)cc1` [diltiazem, (2S)-cis-3-acetyloxy-5-(2-dimethylamino-ethyl)-2,3-dihydro-2-(4-methoxyphenyl)-1,5-benzothiazepine-4(5H)-one], the IC50 in experiment [3] was 150 nM.
On to `Cc1nc2sccn2c(=O)c1CCN1CCC(=C(c2ccc(F)cc2)c2ccc(F)cc2)CC1` [ritanserin, 6-[2-/4-bis(4-fluorophenyl)-methylene/ -1-piperidinylethyl]-7-methyl-5H-thiazolo/3,2-a/pyrimidine-5-one], for which the “treatment of different forms of human anxiety” value in experiment [4] is reported as “proved to be effective for the treatment of different forms of human anxiety”.
